Experimental findings from PubChem BioAssay AID1195 (EPA DSSTox, 2008) are described below.

The data set concerns human maximum recommended daily dose, FDA database. The data set is described as follows: DSSTox (FDAMDD) FDA Maximum (Recommended) Daily Dose Database. The settings on record: stronger effect = lower value. In short, it runs like this:
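MRDD values come from clinical trials with daily oral dosing, usually for 3–12 months, for the average adult, in mg/day converted to mg/kg-bw/day assuming 60 kg. Antineoplastic mg/m2 doses are divided by 37. Activity score maps log10(1/MRDD mmol) onto 1–100.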

The mark [1] stands for this setting: TherapeuticCategory: antibacterial.
The mark [2] stands for this setting: TherapeuticCategory: antineoplastic.
[3] abbreviates: TherapeuticCategory: antiarrhythmic.
Where [4] appears, read: TherapeuticCategory: antihypertensive.
Setting [5] is: TherapeuticCategory: diagnostic aid.
Setting [6] is: TherapeuticCategory: antipsychotic.
Setting [7] is: TherapeuticCategory: antihistaminic.
The mark [8] stands for this setting: TherapeuticCategory: anthelmintic.
Where [9] appears, read: TherapeuticCategory: anticholinergic.
The mark [10] stands for this setting: TherapeuticCategory: antidepressant.

Each structure is given as a SMILES string.

As to `CN=C1CN(O)C(c2ccccc2)=c2cc(Cl)ccc2=N1`, the maximum recommended daily dose (mmol/kg-bw/day) (TherapeuticCategory: anxiolytic) is 0.00557. With `O=c1[nH]cnc2c1ncn2[C@H]1CC[C@@H](CO)O1`, where the note is “TherapeuticCategory: antiviral”, the maximum recommended daily dose (mmol/kg-bw/day) is 0.0282. With `O=C1Cc2cc(CCN3CCN(c4nsc5ccccc45)CC3)c(Cl)cc2N1`, the maximum recommended daily dose (mmol/kg-bw/day) (TherapeuticCategory: antipsychotic, dopamine receptor antagonist, seratonin receptor antagonist) is 0.00647. `CC1(C)S[C@@H]2[C@H](NC(=O)[C@@H](NC(=O)N3CCNC3=O)c3ccccc3)C(=O)N2[C@H]1C(=O)O`: the maximum recommended daily dose (mmol/kg-bw/day) under setting [1] was 0.217. Regarding `CCCCC[C@H](O)/C=C/[C@H]1[C@H](O)CC(=O)[C@@H]1C/C=C\CCCC(=O)O`, for the setting “TherapeuticCategory: oxytocic, abortifacient”, the maximum recommended daily dose (mmol/kg-bw/day) was 7.09e-05. As for `O=S(=O)(O)CCS`, the maximum recommended daily dose (mmol/kg-bw/day) (TherapeuticCategory: mucolytic, uroprotective) is 0.0281. Turning to `CCC(=O)C(CC(C)N(C)C)(c1ccccc1)c1ccccc1` (stereo unspecified), the maximum recommended daily dose (mmol/kg-bw/day) (TherapeuticCategory: narcotic analgesic) is 0.00162. Regarding `N#Cc1ccc(C(c2ccc(C#N)cc2)n2cncn2)cc1`, the maximum recommended daily dose (mmol/kg-bw/day) under setting [2] is 0.000146. For `CCN(CC)CCCN(c1ccccc1)C1Cc2ccccc2C1`, under setting [3], the maximum recommended daily dose (mmol/kg-bw/day) is 0.0155. As for `CN(C/C=C/C#CC(C)(C)C)Cc1cccc2ccccc12`, under “TherapeuticCategory: topical antifungal”, the maximum recommended daily dose (mmol/kg-bw/day) was 0.0926. Regarding `CCCCC(C)(O)C/C=C/[C@H]1[C@H](O)CC(=O)[C@@H]1CCCCCCC(=O)OC` (stereo partly specified), under “TherapeuticCategory: antiulcerative”, the maximum recommended daily dose (mmol/kg-bw/day) is 3.48e-05. For the molecule `CN1C(=O)CCS(=O)(=O)C1c1ccc(Cl)cc1` (stereo unspecified), the maximum recommended daily dose (mmol/kg-bw/day) (TherapeuticCategory: anxiolytic, skeletal muscle relaxant) is 0.0244. In the case of `CCCCCCC(C)(C)c1cc(O)c2c(c1)OC(C)(C)[C@@H]1CCC(=O)C[C@@H]21`, the maximum recommended daily dose (mmol/kg-bw/day) (TherapeuticCategory: antiemetic) was 0.000268. Take `NC(N)=NCCN1CCCCCCC1`: the maximum recommended daily dose (mmol/kg-bw/day) under setting [4] was 0.0042. With `CCC(=O)O[C@@H]1CC(=O)O[C@H](C)C/C=C/C=C/[C@H](O[C@@H]2CC[C@H](N(C)C)[C@@H](C)O2)[C@H](C)C[C@H](CC=O)[C@H](O[C@@H]2O[C@H](C)[C@@H](O[C@H]3C[C@@](C)(O)[C@@H](O)[C@H](C)O3)[C@H](N(C)C)[C@H]2O)[C@H]1OC`, the maximum recommended daily dose (mmol/kg-bw/day) under setting [1] is 0.0742. Consider `O=C1N(Cc2ccccc2)C2C[S+]3CCCC3C2N1Cc1ccccc1` (stereo unspecified), for which the maximum recommended daily dose (mmol/kg-bw/day) under setting [4] is 0.000112. In the case of `CCC(Cc1c(I)cc(I)c(N)c1I)C(=O)O` (stereo unspecified), under setting [5], the maximum recommended daily dose (mmol/kg-bw/day) was 0.175. On to `CC(C)COCC(CN(Cc1ccccc1)c1ccccc1)N1CCCC1` (stereo unspecified), for which the maximum recommended daily dose (mmol/kg-bw/day) (TherapeuticCategory: antianginal) was 0.0182. On to `N[C@@H](Cc1c[nH]c2ccccc12)C(=O)O`, for which the maximum recommended daily dose (mmol/kg-bw/day) (TherapeuticCategory: antidepressant, nutrient) was 0.49. For `O=C(CCCN1CCC(O)(c2ccc(Br)cc2)CC1)c1ccc(F)cc1`, the maximum recommended daily dose (mmol/kg-bw/day) under setting [6] is 0.00198. On to `OC[C@H]1O[C@@H](n2cnc3c2NC=NC[C@H]3O)C[C@@H]1O`, for which, under setting [2], the maximum recommended daily dose (mmol/kg-bw/day) was 0.000249. Regarding `CC(=O)O[C@]1(C(C)=O)CC[C@H]2[C@@H]3C=C(Cl)C4=CC(=O)[C@@H]5C[C@@H]5[C@]4(C)[C@H]3CC[C@@]21C`, the maximum recommended daily dose (mmol/kg-bw/day) (TherapeuticCategory: antiandrogen) was 0.012. Turning to `NS(=O)(=O)c1cc2c(cc1Cl)NC(CC1CCCC1)NS2(=O)=O` (stereo unspecified), the maximum recommended daily dose (mmol/kg-bw/day) under setting [4] is 6.58e-05. Take `c1ccc2c(c1)Sc1ccccc1N2CC1CN2CCC1CC2` (stereo unspecified): the maximum recommended daily dose (mmol/kg-bw/day) under setting [7] was 0.000518. `C[C@](N)(Cc1ccc(O)c(O)c1)C(=O)O`: the maximum recommended daily dose (mmol/kg-bw/day) under setting [4] is 0.158.

For the molecule `CCCOC(=O)c1ccc(O)cc1`, the maximum recommended daily dose (mmol/kg-bw/day) (TherapeuticCategory: pharmaceutic aid) was 0.0555. As to `O=C(O)P(=O)(O)O`, the maximum recommended daily dose (mmol/kg-bw/day) (TherapeuticCategory: antiviral) was 0.625.

On to `COc1cccc(OC)c1C(=O)N[C@@H]1C(=O)N2[C@@H]1SC(C)(C)[C@@H]2C(=O)O`, for which, under setting [1], the maximum recommended daily dose (mmol/kg-bw/day) is 0.526.

`CC(C)N=C(N)/N=C(\N)Nc1ccc(Cl)cc1`: the maximum recommended daily dose (mmol/kg-bw/day) (TherapeuticCategory: antimalarial) is 0.0131. Take `Cc1cn([C@H]2C[C@H](O)[C@@H](CO)O2)c(=O)[nH]c1=O`: where the note is “TherapeuticCategory: none”, the maximum recommended daily dose (mmol/kg-bw/day) is 0.413. For `CC(=O)c1ccc2c(c1)N(CCCN1CCN(CCO)CC1)c1ccccc1S2`, the maximum recommended daily dose (mmol/kg-bw/day) under setting [6] was 0.0243.

Consider `COC(=O)C1=C(C)NC(C)=C(C(=O)OCC(C)C)C1c1ccccc1[N+](=O)[O-]` (stereo unspecified), for which the maximum recommended daily dose (mmol/kg-bw/day) (TherapeuticCategory: antihypertensive, antianginal) is 0.00172. With `CC(=O)N=c1sc(S(N)(=O)=O)nn1C`, the maximum recommended daily dose (mmol/kg-bw/day) (TherapeuticCategory: diuretic) was 0.0212. For the molecule `CC(C)(N)Cc1ccccc1Cl`, the maximum recommended daily dose (mmol/kg-bw/day) (TherapeuticCategory: anorexic) is 0.00454. As to `OC1(c2ccc(Cl)cc2)c2ccccc2C2=NCCN21` (stereo unspecified), the maximum recommended daily dose (mmol/kg-bw/day) (TherapeuticCategory: anorexic) was 0.000117. Take `CCN1/C(=C/C=C/C=C/c2sc3ccccc3[n+]2CC)Sc2ccccc21`: the maximum recommended daily dose (mmol/kg-bw/day) under setting [8] was 0.00642. As for `OCC(O)CO`, the maximum recommended daily dose (mmol/kg-bw/day) under setting [5] is 10.8. Consider `COc1ccc2c3c1O[C@H]1[C@@H](O)C=C[C@H]4[C@@H](C2)N(C)CC[C@@]341`, for which the maximum recommended daily dose (mmol/kg-bw/day) (TherapeuticCategory: narcotic analgesic, antitussive) is 0.02. Take `CO/N=C(/C(=O)N[C@@H]1C(=O)N2C(C(=O)OC(C)OC(C)=O)=C(COC(N)=O)CS[C@H]12)c1ccco1` (stereo partly specified): under setting [1], the maximum recommended daily dose (mmol/kg-bw/day) was 0.0327. `CCN(CCCCOC(=O)c1ccc(OC)c(OC)c1)C(C)Cc1ccc(OC)cc1` (stereo unspecified): under “TherapeuticCategory: antispasmodic”, the maximum recommended daily dose (mmol/kg-bw/day) is 0.0157. With `O=C(O)c1ccccc1C(=O)Nc1ccc(S(=O)(=O)Nc2nccs2)cc1`, under setting [1], the maximum recommended daily dose (mmol/kg-bw/day) was 0.496. As to `CN(C)[C@@H]1C(=O)C(C(N)=O)=C(O)[C@@]2(O)C(=O)C3=C(O)c4c(O)ccc(Cl)c4[C@@H](O)[C@H]3C[C@@H]12`, under setting [1], the maximum recommended daily dose (mmol/kg-bw/day) was 0.0323. Regarding `C[C@H](N)[C@H](O)c1cccc(O)c1`, the maximum recommended daily dose (mmol/kg-bw/day) (TherapeuticCategory: adrenergic) was 0.0498. Turning to `CCOC(=O)[C@H](CCc1ccccc1)N[C@@H](C)C(=O)N1CCC[C@H]1C(=O)O`, the maximum recommended daily dose (mmol/kg-bw/day) under setting [4] is 0.00177.

Regarding `Cc1onc(-c2ccccc2Cl)c1C(=O)N[C@@H]1C(=O)N2[C@@H]1SC(C)(C)[C@@H]2C(=O)O`, the maximum recommended daily dose (mmol/kg-bw/day) under setting [1] is 0.0764. For `CCN(CC)CCOC(=O)C(c1ccccc1)c1ccccc1`, the maximum recommended daily dose (mmol/kg-bw/day) under setting [9] is 0.0241.

On to `Cc1cc(/C=C/c2ccc3cc(N(C)C)ccc3[n+]2C)c(C)n1-c1ccccc1`, for which the maximum recommended daily dose (mmol/kg-bw/day) under setting [8] is 0.00434. Consider `N=c1ccn2c(n1)O[C@H]1[C@H](O)[C@@H](CO)O[C@H]12`, for which, under setting [2], the maximum recommended daily dose (mmol/kg-bw/day) is 0.0888. Regarding `CC(C)NCC(O)COc1cccc2ccccc12` (stereo unspecified), where the note is “TherapeuticCategory: antihypertensive, antianginal, antiarrhythmic”, the maximum recommended daily dose (mmol/kg-bw/day) is 0.0413. For `CCCCCCCCCCCCCCCC(=O)OCC(=O)[C@@]1(O)[C@H](C)C[C@H]2[C@@H]3CCC4=CC(=O)C=C[C@]4(C)[C@@]3(F)[C@@H](O)C[C@@]21C`, under “TherapeuticCategory: glucocorticoid, anti inflammatory”, the maximum recommended daily dose (mmol/kg-bw/day) was 0.000238. Consider `c1ccc(C2(c3ccccc3)CC2C2=NCCN2)cc1` (stereo unspecified), for which the maximum recommended daily dose (mmol/kg-bw/day) under setting [3] was 0.0248. Take `CCCN(CCC)S(=O)(=O)c1ccc(C(=O)O)cc1`: the maximum recommended daily dose (mmol/kg-bw/day) (TherapeuticCategory: uricosuric) was 0.0585. Consider `CN[C@@H](C)[C@H](O)c1ccccc1`, for which the maximum recommended daily dose (mmol/kg-bw/day) (TherapeuticCategory: bronchodilator) was 0.0101. For the molecule `CCN(CC)C(C)CN1c2ccccc2Sc2ccccc21` (stereo unspecified), for the setting “TherapeuticCategory: antiparkinsonian, anticholinergic”, the maximum recommended daily dose (mmol/kg-bw/day) was 0.032. Take `CC(C(=O)O)c1ccc(C(=O)c2ccccc2)s1` (stereo unspecified): the maximum recommended daily dose (mmol/kg-bw/day) (TherapeuticCategory: anti inflammatory) was 0.0384. With `CCN(CC)C(=S)SSC(=S)N(CC)CC`, the maximum recommended daily dose (mmol/kg-bw/day) (TherapeuticCategory: alcohol deterrent) is 0.0281.

In the case of `CC(C)Nc1cccnc1N1CCN(C(=O)c2cc3cc(NS(C)(=O)=O)ccc3[nH]2)CC1`, the maximum recommended daily dose (mmol/kg-bw/day) (TherapeuticCategory: antiviral) was 0.0146. Regarding `CC(C)(Oc1ccc(Cl)cc1)C(=O)NC(=O)NCN1CCOCC1`, under “TherapeuticCategory: antithrombotic”, the maximum recommended daily dose (mmol/kg-bw/day) was 0.112.

As for `COc1cnc(NS(=O)(=O)c2ccc(N)cc2)nc1`, the maximum recommended daily dose (mmol/kg-bw/day) under setting [1] was 0.0892. In the case of `CN(C)CCC=C1c2ccccc2CCc2ccccc21`, the maximum recommended daily dose (mmol/kg-bw/day) under setting [10] is 0.018. For the molecule `Cc1nc(N/C(N)=N/S(=O)(=O)c2ccc(N)cc2)oc1C`, the maximum recommended daily dose (mmol/kg-bw/day) under setting [1] is 0.129. In the case of `Clc1ccc(C/C(=C\CN2CCCC2)c2ccccc2)cc1`, under setting [7], the maximum recommended daily dose (mmol/kg-bw/day) is 0.00481.

With `CCOc1cc(CC(=O)N[C@@H](CC(C)C)c2ccccc2N2CCCCC2)ccc1C(=O)O`, under “TherapeuticCategory: antidiabetic”, the maximum recommended daily dose (mmol/kg-bw/day) was 0.00059. With `CC1=C(/C=C/C(C)=C/C=C/C(C)=C/C=C/C=C(C)/C=C/C=C(C)/C=C/C2=C(C)C(=O)CCC2(C)C)C(C)(C)CCC1=O`, the maximum recommended daily dose (mmol/kg-bw/day) (TherapeuticCategory: antioxidant) is 0.0443.

As to `COc1cc(NS(=O)(=O)c2ccc(N)cc2)nc(C)n1`, the maximum recommended daily dose (mmol/kg-bw/day) under setting [1] is 0.113. As for `O=P(O)(O)OCC(Cl)(Cl)Cl`, the maximum recommended daily dose (mmol/kg-bw/day) (TherapeuticCategory: sedative, hypnotic) is 0.145. Turning to `CC(C)NNC(=O)c1ccncc1`, the maximum recommended daily dose (mmol/kg-bw/day) (TherapeuticCategory: monoamine oxidase inhibitor, antidepressant) was 0.0139. Regarding `CN1CCCN=C1COC(=O)C(O)(c1ccccc1)C1CCCCC1` (stereo unspecified), the maximum recommended daily dose (mmol/kg-bw/day) under setting [9] was 0.00145. Turning to `COc1ccc(C(CN(C)C)C2(O)CCCCC2)cc1` (stereo unspecified), the maximum recommended daily dose (mmol/kg-bw/day) under setting [10] is 0.0225. As for `O=P(O)(O)OCC(O)CO` (stereo unspecified), the maximum recommended daily dose (mmol/kg-bw/day) (TherapeuticCategory: none) is 0.388. As for `Cn1c(=O)c2c(ncn2C)n(C)c1=O`, the maximum recommended daily dose (mmol/kg-bw/day) (TherapeuticCategory: CNS stimulant) was 0.0515.
